B1: Wnt5a: recombinant Wnt5a (R&D Systems/Bio-techne, 645-WN-010) used to treat cell lines (protein, UniProt P22725 62-380, looked up)
Protein Wnt-5a: IIGAQPLCSQLAGLSQGQKKLCHLYQDHMQYIGEGAKTGIKECQYQFRHRRWNCSTVDNTSVFGRVMQIGSRETAFTYAVSAAGVVNAMSRACREGELSTCGCSRAARPKDLPRDWLWGGCGDNIDYGYRFAKEFVDARERERIHAKGSYESARILMNLHNNEAGRRTVYNLADVACKCHGVSGSCSLKTCWLQLADFRKVGDALKEKYDSAAAMRLNSRGKLVQVNSRFNSPTTQDLVYIDPSPDYCVRNESTGSLGTQGRLCNKTSEGMDGCELMCCGRGYDQFKTVQTERCHCKFHWCCYVKCKKCTEIVDQFVCK

Tests used:
non-tumor-bearing mice = experiment: Recombinant HSP70 i.p. delivery into non-tumor-bearing mice (lung Western blot, flow cytometry); assay type: in vivo, mouse; conditions: rHSP70 i.p. vs normal saline
Source text: (§1) Indeed, while we were able to detect soluble HSP70 as a secretion product of human melanoma cell lines, we were not able to detect the production of active IL-1β (FIGS. 12B and C). […] We have previously shown that the tumor-intrinsic NLRP3 inflammasome drives PMN-MDSC recruitment via an autocrine signaling pathway dependent on soluble HSP70 (19). […] To determine whether HSP70 could play the role of a soluble mediator in the induction of CXCR2-dependent chemokines in the distant lung, we delivered recombinant HSP70 (rHSP70) into non-tumor-bearing mice by intra-peritoneal (i.p.) injection and measured CXCL5 expression by whole lung tissue Western blot analysis as well as PMN-MDSC accumulation in the lung by flow cytometry. […] Based on these cumulative findings, we hypothesized that tumor-derived HSP70 signals through TLR4 to promote PMN-MDSC trafficking to these distant tissues. […]
Cells (1-2×10^6) were diluted in 150 μl flow buffer per well of V bottom culture plates, incubated with Live/Dead Stain (Sigma) on ice for 20 mins, washed twice, and incubated with Fc Block (anti-CD16/CD32, 2 ug/mL) before staining with appropriate conjugated antibodies. Cells were washed, resuspended in 2% paraformaldehyde for 15 mins at 4° C., and analyzed using a BD FACSCanto flow cytometry system. […]

[1] = tested on: MLE12 lung epithelial cells; experiment: MLE12 lung epithelial cell line Western blot after rHSP70 ± TLR4 inhibitor or recombinant Wnt5a; assay type: cell-based, murine; conditions: for G-CSF expression: in vitro lung epithelial cells
[2] = tested on: CD45^−EpCAM^+ lung epithelial cells of TLR4^f/f and SPC-TLR4^−/− mice; experiment: rHSP70 i.p. in TLR4f/f and SPC-TLR4−/− transgenic mice, qrt-PCR of sorted lung epithelial cells; assay type: in vivo, mouse; conditions: rHSP70 i.p. vs saline
Source text: as §1
Small representative tissue specimens were harvested from tumors and lungs and stored in RNAlater at −80° C. […] Total RNA was isolated by RNeasy Plus Mini Kit (Qiagen, 74134) and RNA was quantified by NanoDrop. […]

[3] = tested on: BRAF^V600EPTEN^−/− melanoma-bearing NLRP3^−/− mice; experiment: Anti-PD-1 alone or with MCC950 in BRAFV600EPTEN−/− melanoma-bearing NLRP3−/− mice; assay type: in vivo, mouse
[4] = tested on: autochthonous BRAF^V600EPTEN^−/− melanoma model; experiment: Autochthonous (transgenic) BRAFV600EPTEN−/− melanoma model treated with anti-PD-1 ± MCC950 or anti-HSP70 antibody; assay type: in vivo, mouse
Source text: Prior studies have described disease hyper-progression (HPD) occurring in response to anti-PD-1 immunotherapy, a phenomenon estimated by some authors to develop in ˜10% of all solid tumors (5). In HPD, tumor burden can dramatically increase in response to exposure to anti-PD-1 immunotherapy. Given our prior data describing a role for the tumor-intrinsic NLRP3-HSP70 signaling axis as an important driver of PMN-MDSC accumulation in distant lung tissues in response to anti-PD-1 immunotherapy, we hypothesized that this same tumor-intrinsic signaling pathway can establish an immunologic environment capable of facilitating HPD. […]
B6.Cg-Braf^tm1Mmcm Pten^tm1Hwu Tg(Tyr-cre/ERT2 H-2^b)13Bos/BosJ transgenic mice were subdermally injected with 4-Hydroxytamoxifen (4-HT) (Sigma, H6278-50MG CCF, 38.75 μg/mouse) to induce primary melanoma development at the base of the tail. […] Primary tumor volumes were monitored by orthogonal caliper measurements every 3 days. Tumor volume was calculated according to the formula: cm^3=[(length, cm)×(width, cm)^2]/2.
Small representative tissue specimens were harvested from tumors and lungs and stored in RNAlater at −80° C. […] Total RNA was isolated by RNeasy Plus Mini Kit (Qiagen, 74134) and RNA was quantified by NanoDrop. […] All data were normalized to Actb expression and relative gene expression was quantitated based on the 2ΔΔCt method. […]

| Molecule | CXCL5 expression in whole lung tissue (non-tumor-bearing mice; Western blot) | PMN-MDSC accumulation in the lung (non-tumor-bearing mice; flow cytometry) | Wnt5a expression ([1]; MLE12 cells, rHSP70 ± TLR4 inhibitor) | G-CSF expression [1] | Wnt5a and Cxcl5 expression in lung epithelial cells [2] | anti-PD-1-induced accumulation of PMN-MDSCs into lung tissues ([3]; MCC950 in combination with anti-PD-1, lung tissue and BALF) | upregulation of Wnt5a expression in lung tissues ([3]; MCC950 with anti-PD-1, Western blot) | metastatic progression to the lung ([4]; MCC950 with anti-PD-1, S100β IHC and TRP2 qrt-PCR) | PMN-MDSC populations in the lung ([4]; MCC950 with anti-PD-1 vs anti-PD-1) |
| --- | --- | --- | --- | --- | --- | --- | --- | --- | --- |
| rHSP70: recombinant HSP70 delivered by intra-peritoneal injection or added to cells | induce CXCL5 expression | promote the accumulation of PMN-MDSCs in lung tissues | induce Wnt5a expression in a TLR4-dependent manner | induce modest G-CSF upregulation | upregulated only in lung epithelial cells expressing TLR4 |  |  |  |  |
| CC(C)(O)c1coc(S(=O)(=O)NC(=O)Nc2c3c(cc4c2CCC4)CCC3)c1 [MCC950] |  |  |  |  |  | largely eliminated | suppress the upregulation of Wnt5a expression in lung tissues | inhibiting metastatic progression | suppress PMN-MDSC populations in the lung |
| B1 |  |  |  | more immediate driver of G-CSF |  |  |  |  |  |

Source: patent US20230152324A1, “TUMOR-INTRINSIC NLRP3 INFLAMMASOME SIGNALING PATHWAY AS A GENETIC AND FUNCTIONAL BIOMARKER FOR IMMUNOTHERAPY RESPONSE” (Duke University, priority 2021, published 2023)
